The results in this text go back to paper PMC6264186, “Development of a Highly Sensitive and Specific Immunoassay for Determining Chrysoidine, A Banned Dye, in Soybean Milk Film” (Molecules, 2011).

The subject of assay [1] is polyclonal Ab 2 (antibody to chrysoidine, from Hapten 2). Kind of assay: indirect competitive ELISA (icELISA) with polyclonal Ab 2. Conditions: for Cross-reactivity / IC50: polyclonal Ab 2, coating antigen Hapten 1-OVA; for Cross-reactivity: CR = IC50(chrysoidine)/IC50(interferent) x 100. It counts as binding, New Zealand white rabbits. The method, then: Specificity of the optimized assay was tested by measuring the cross-reactivity using a group of structurally related dyes. Twenty-four compounds were selected for testing the cross-reactivity (CR) (Table 1). The CR was calculated as follows: CR(%) = [IC50(chrysoidine) / IC50(interferent)] × 100.

For assay [2] the test system is unchanged. The assay is described as above. In kind it is binding, New Zealand white rabbits. Conditions: coating antigen Hapten 2-OVA 17 ng/mL, Ab 2 dilution 10000 (homologous).
The subject of assay [3] is Ab 1 (antibody to chrysoidine, from Hapten 1). Description: indirect competitive ELISA (icELISA) with polyclonal Ab 1.
Protocol: Checkerboard assays, in which antibodies were titrated against various amounts of the coating antigen, were used to measure the reactivity of antibodies and to select an appropriate antigen coating and antibody dilutions for competitive indirect assays. […] The concentrations of the antibodies and the coating antigen chosen were further optimized.
The procedure for the competitive assay was as follows. Microtiter plates were coated with hapten-OVA (100–1000 ng/mL, 100 µL/well) in carbonate-bicarbonate buffer (50 mM, pH 9.6) by overnight incubation at 4 °C. The plates were blocked with blocking solution by incubation for 3 h. Serial dilution of the analyte in methanol-PBST (1:9, v:v, 50 µL/well) were added, followed by 50 µL/well of antibody diluted (1/1,000–1/10,000) with PBST solution. After incubation for about 30–60 min, 100 µL/well of a diluted (1/10,000) goat anti-rabbit IgG-HRP was added. The mixture was incubated for 60 min, and 100 µL/well of a TMB solution was added. The reaction was stopped after an appropriate time (typically 8 min) by adding 10% (v:v) H2SO4 (50 µL), and the absorbance was read at 450 nm.
The mark [4] stands for this setting: coating antigen Hapten 1-OVA 20 ng/mL, Ab 2 dilution 4000 (heterologous).
Setting [5] is: coating antigen Hapten 1-OVA 20 ng/mL, Ab 1 dilution 8000 (homologous).
[6] abbreviates: coating antigen Hapten 2-OVA 20 ng/mL, Ab 1 dilution 20000 (heterologous).

Values after ≈ are worked out from the molar mass of the structure shown.

A word on the IC50: it is the concentration that inhibits the measured activity by half. Lower therefore signals higher potency. `O=[N+]([O-])c1ccc(N=Nc2c(O)ccc3ccccc23)cc1` [1-(4-nitrophenyl-azo)-2-naphthol]: the Cross-reactivity in assay [1] is given as ≤0.01%. Moreover, in assay [1] (class symbol ND), the IC50 was > 13.3 µM.

Take `O=C(O)C1=NN(c2ccc(S(=O)(=O)O)cc2)C(=O)C1/N=N/c1ccc(S(=O)(=O)O)cc1` (centres unmarked) [Acid Yellow 23]: in assay [1], the IC50 amounted to 3.05 µM and the Cross-reactivity turned out to be 0.04%.

In the case of `COc1cc(S(=O)(=O)O)c(C)cc1/N=N/c1c(O)ccc2cc(S(=O)(=O)O)ccc12` [Allura Red], in assay [1], the Cross-reactivity is reported as ≤0.01%. In addition, the IC50 in assay [1] (class symbol ND) was > 13.3 µM.

Take `O=S(=O)(O)c1ccc2c(/N=N/c3ccc(S(=O)(=O)O)c4ccccc34)c(O)c(S(=O)(=O)O)cc2c1` [Amaranth]: the Cross-reactivity in assay [1] is reported as ≤0.01%. Also, the IC50 in assay [1] (class symbol ND) is > 13.3 µM.

With `CN(C)c1ccc(C(=N)c2ccc(N(C)C)cc2)cc1` [Auramine O], in assay [1], the IC50 was 0.798 µM and the Cross-reactivity came to 0.2%.

For the molecule `O=S(=O)(O)c1ccc(/N=N/c2cc(S(=O)(=O)O)c3ccccc3c2O)c2ccccc12` [Azorubine], in assay [1], the Cross-reactivity was ≤0.01%. The IC50 in assay [1] (class symbol ND) was > 13.3 µM.

For `CCN(Cc1cccc(S(=O)(=O)O)c1)c1ccc(C(=C2C=CC(=[N+](CC)Cc3cccc(S(=O)(=O)O)c3)C=C2)c2ccc(O)cc2S(=O)(=O)[O-])cc1` [Brilliant blue-85], the Cross-reactivity in assay [1] was ≤0.01%. In assay [1] (class symbol ND), the IC50 is > 13.3 µM.

`Cc1c(C(=O)O)c(O)cc2c1C(=O)c1c(O)c([C@@H]3O[C@H](CO)[C@@H](O)[C@H](O)[C@H]3O)c(O)c(O)c1C2=O` [Carminic acid]: in assay [1], the Cross-reactivity is on record as ≤0.01%. The IC50 in assay [1] (class symbol ND) is > 13.3 µM.

For the molecule `Nc1ccc(/N=N/c2ccccc2)c(N)c1` [Chrysoidine], in assay [1] (setting [4]), the “IC50 (50% inhibitory concentration)” value was determined as 0.33 ng/mL (≈ 0.00155 µM). For the same molecule, the “LOD (10% inhibitory concentration)” value is on record as 0.04 ng/mL in assay [1] (setting [4]); ≤ 0.04 ng/mL in assay [1] (coating antigen Hapten 1-OVA 20 ng/mL, Ab 2 dilution 4000 (heterologous), listed as chrysoidine); 3.8 ng/mL in assay [2]; 0.8 ng/mL in assay [3] (setting [5]); 0.4 ng/mL in assay [3] (setting [6]). Further, the “limit of quantitation (LOQ, 20%-80% inhibitory concentration)” value in assay [1] (coating antigen Hapten 1-OVA, Ab 2 (heterologous)) was 0.09 to 4.9 ng/mL. Further, the IC50 in assay [1] amounted to 0.00133 µM; in assay [2] it was 10.6 ng/mL (≈ 0.0499 µM); in assay [3] (setting [5]), 7.4 ng/mL (≈ 0.0349 µM); in assay [3] (setting [6]) it was 1.6 ng/mL (≈ 0.00754 µM). The Cross-reactivity in assay [1] was 100.0%.

For the molecule `O=C1OC2(c3ccccc31)c1cc(I)c(O)c(I)c1Oc1c2cc(I)c(O)c1I` [Erythrosine], the Cross-reactivity in assay [1] is ≤0.01%. Moreover, the IC50 in assay [1] (class symbol ND) is > 13.3 µM.

With `Nc1ccc(N=Nc2ccc(C(=O)O)cc2)c(N)c1` [Hapten1, 4-((2,4-Diaminophenyl)diazenyl)benzoic acid], in assay [1], the IC50 amounted to 0.00078 µM and the Cross-reactivity is 169.8%. In assay [1] (listed as Hapten 1), the Cross-reactivity was determined as 170%.

`Nc1ccc(N=Nc2ccc(CC(=O)O)cc2)c(N)c1` [Hapten2, 2-(4-((2,4-Diaminophenyl)diazenyl)phenyl)acetic acid] had an IC50 in assay [1] of 0.00105 µM. In addition, the Cross-reactivity in assay [1] came out at 127.0%; in assay [1] (listed as Hapten 2), 127%.

Regarding `O=C1/C(=C2\Nc3ccccc3C2=O)Nc2ccccc21` [Indigo], in assay [1], the Cross-reactivity was ≤0.01%. Further, the IC50 in assay [1] (class symbol ND) is > 13.3 µM.

Take `Nc1nc(N)nc(N)n1` [Melamine]: the Cross-reactivity in assay [1] is ≤0.01%. Moreover, the concentration for half-maximal inhibition (IC50) in assay [1] (class symbol ND) was > 13.3 µM.

`O=S(=O)(O)c1ccc(/N=N/c2ccc(Nc3ccccc3)cc2)cc1` [Orange yellow]: in assay [1], the Cross-reactivity is ≤0.01%. Besides, in assay [1] (class symbol ND), the IC50 is > 13.3 µM.

In the case of `O=S(=O)(O)c1ccc(/N=N/c2ccc(O)c3ccccc23)cc1` [Orangeim], in assay [1], the IC50 came out at 1.12 µM and the Cross-reactivity is given as 0.1%. For the same molecule, the Cross-reactivity in assay [1] (listed as orangeim) is listed as 0.12%.

`O=C1OC2(c3ccc(Cl)cc3Oc3cc(Cl)ccc32)c2ccccc21` [Reddish orange]: in assay [1], the Cross-reactivity is listed as ≤0.01%. Also, the IC50 in assay [1] (class symbol ND) is > 13.3 µM.

Turning to `Cc1ccc([N+](=O)[O-])cc1N` [Scarlet Base G], the Cross-reactivity in assay [1] is reported as ≤0.01%. The IC50 in assay [1] (class symbol ND) is > 13.3 µM.

On to `Oc1ccc2ccccc2c1/N=N/c1ccccc1` [Sudan Red I], for which the Cross-reactivity in assay [1] is ≤0.01%. In assay [1] (class symbol ND), the IC50 is > 13.3 µM.

Take `O=S(=O)(O)c1ccc(/N=N/c2c(O)ccc3cc(S(=O)(=O)O)ccc23)cc1` [Sunset yellow]: the Cross-reactivity in assay [1] was ≤0.01%. Also, the half-maximal inhibitory concentration (IC50) in assay [1] (class symbol ND) was > 13.3 µM.

In the case of `O=C(O)C1=NN(c2ccc(S(=O)(=O)O)cc2)C(=O)C1/N=N/c1ccc(S(=O)(=O)O)cc1` (centres unmarked) [Tartrazine], the Cross-reactivity in assay [1] is reported as ≤0.01%. In addition, the IC50 in assay [1] (class symbol ND) was > 13.3 µM.

As for Acid Red 94, the Cross-reactivity in assay [1] was ≤0.01%. The IC50 in assay [1] (class symbol ND) is > 13.3 µM.

On to Carmine, for which the Cross-reactivity in assay [1] is listed as ≤0.01%. For the same molecule, in assay [1] (class symbol ND), the IC50 was > 13.3 µM.
